Values quoted from earlier work in patent publication US20240166770A1, “COMPOSITIONS AND METHODS FOR INHIBITION OF CELL-PENETRATING ANTIBODIES” (Yale University, priority 2019, published 2024).
Read-outs that look alike come from different tables or passages of the source.

Experiments:
[1] = molecular target: T1, hENT1 (Homo sapiens, UniProt Q99808); conditions: cited from earlier work
T1 sequence (Q99808 1-456): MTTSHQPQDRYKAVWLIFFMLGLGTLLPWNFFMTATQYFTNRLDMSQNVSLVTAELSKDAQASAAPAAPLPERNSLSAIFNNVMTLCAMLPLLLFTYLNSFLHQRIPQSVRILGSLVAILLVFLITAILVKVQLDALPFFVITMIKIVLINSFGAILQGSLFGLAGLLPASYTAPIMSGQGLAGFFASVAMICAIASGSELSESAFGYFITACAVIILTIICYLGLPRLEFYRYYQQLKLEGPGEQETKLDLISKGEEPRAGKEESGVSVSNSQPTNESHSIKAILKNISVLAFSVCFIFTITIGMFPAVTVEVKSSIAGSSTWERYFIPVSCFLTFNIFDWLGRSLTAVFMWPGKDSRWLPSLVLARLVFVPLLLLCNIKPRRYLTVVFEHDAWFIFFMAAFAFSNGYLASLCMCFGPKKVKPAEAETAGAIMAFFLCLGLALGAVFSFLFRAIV

[2] = molecular target: T2, hENT4 (Homo sapiens, UniProt Q7RTT9); conditions: cited from earlier work
T2 sequence (Q7RTT9 1-530): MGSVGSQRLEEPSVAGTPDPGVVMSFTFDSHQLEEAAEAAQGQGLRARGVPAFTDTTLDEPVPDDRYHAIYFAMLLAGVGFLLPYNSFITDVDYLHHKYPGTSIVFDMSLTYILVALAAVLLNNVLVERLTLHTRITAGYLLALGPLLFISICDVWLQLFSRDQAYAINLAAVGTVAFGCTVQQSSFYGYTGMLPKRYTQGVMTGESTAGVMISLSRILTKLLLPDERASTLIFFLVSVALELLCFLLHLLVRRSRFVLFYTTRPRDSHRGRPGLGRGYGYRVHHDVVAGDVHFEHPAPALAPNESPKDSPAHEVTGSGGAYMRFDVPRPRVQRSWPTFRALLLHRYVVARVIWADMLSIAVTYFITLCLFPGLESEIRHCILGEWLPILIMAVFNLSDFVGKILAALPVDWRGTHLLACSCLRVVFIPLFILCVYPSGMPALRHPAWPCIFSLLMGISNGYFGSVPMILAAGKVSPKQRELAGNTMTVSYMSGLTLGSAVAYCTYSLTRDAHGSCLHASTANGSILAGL

[3] = molecular target: T3, ENT2 (Homo sapiens, UniProt Q14542); conditions: cited from earlier work
T3 sequence (Q14542 1-456): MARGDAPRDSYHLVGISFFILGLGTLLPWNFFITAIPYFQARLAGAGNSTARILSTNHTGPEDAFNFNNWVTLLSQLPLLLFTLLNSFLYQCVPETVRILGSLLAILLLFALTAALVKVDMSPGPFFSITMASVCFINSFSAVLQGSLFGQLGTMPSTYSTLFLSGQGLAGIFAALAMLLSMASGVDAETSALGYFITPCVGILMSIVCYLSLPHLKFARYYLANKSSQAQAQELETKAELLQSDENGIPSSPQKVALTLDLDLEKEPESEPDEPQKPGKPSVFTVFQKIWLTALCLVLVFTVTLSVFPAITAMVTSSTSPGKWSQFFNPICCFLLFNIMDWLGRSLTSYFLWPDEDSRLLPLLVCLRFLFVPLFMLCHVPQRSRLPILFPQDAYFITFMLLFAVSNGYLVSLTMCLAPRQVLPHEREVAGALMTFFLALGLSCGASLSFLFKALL

[4] = molecular target: T2, hENT4; conditions: cited from earlier work; remark: listed apart in the source
[5] = molecular target: T3, ENT2; conditions: Visser et al. 2002; cited from earlier work
[6] = Table 1, different ring systems at the 4- and 8-positions
[7] = Table 3, free hydrogen on the nitrogen of 4- and 8-position substituents
[8] = Table 4, modification at hydroxyl groups of dipyridamole
[9] = Table 2, opening chain analogues

## OCCNc1nc(N2CC3CC4CC(C3)CC2C4)c2nc(NCCO)nc(N3CC4CC5CC(C4)CC3C5)c2n1 [compound 20]
[1]; [6]
  IC50: 1.43 µM
[2]; [6]
  IC50: 0.602 µM

## OCCN(CCO)c1nc(NC2CCCCC2)c2nc(N(CCO)CCO)nc(NC3CCCCC3)c2n1 [compound 66]
[2]; [7]
  IC50: 124 µM

## OCCN(CCO)c1nc(N2CCCCC2)c2nc(N(CCO)CCO)nc(N3CCCCC3)c2n1 [Dipyridamole, 2,6-bis-(diethanolamino)-4,8-di-piperidino-pyrimidopyrimidine]
[3]; [6]
  IC50: 0.308 µM
[4]
  inhibition of hENT4 (in words): only weakly inhibits
[4]; listed as dipyridamole
  inhibition of hENT4 (in words): moderate inhibitors
[2]; [6]
  IC50: 2.8 µM
[5]
  Ki: 6.2 µM

## OCCNc1nc(NC2CCC2)c2nc(NCCO)nc(NC3CCC3)c2n1 [compound 63]
[1]; [7]
  IC50: 1.86 µM
[3]; [7]
  IC50: 7.75 µM

## COCCN(CCOC)c1nc(N2CCCCC2)c2nc(N(CCOC)CCOC)nc(N3CCCCC3)c2n1 [compound 76]
[3]; [8]
  IC50: 1.47 µM
[2]; [8]
  IC50: 1.82 µM

## COCCN(CCOC)c1nc(N(CCO)CCO)nc2c(N(CCOC)CCOC)nc(N(CCO)CCO)nc12 [compound 35]
[1]; [9]
  IC50: 0.538 µM
[3]; [9]
  IC50: 2.09 µM
[2]; [9]
  IC50: 104 µM

## CC(C)(C)Nc1nc(N(CCO)CCO)nc2c(NC(C)(C)C)nc(N(CCO)CCO)nc12 [compound 52]
[2]; [7]
  IC50: 0.767 µM

## OCCOc1nc(N2CCCCC2)c2nc(OCCO)nc(N3CCCCC3)c2n1 [compound 72]
[3]; [8]
  IC50: 1.78 µM

## C1CCN(c2nc(N3CCOCC3)nc3c(N4CCCCC4)nc(N4CCOCC4)nc23)CC1 [compound 73]
[1]; [8]
  IC50: 1.64 µM

## OCCN(CCO)c1nc(N2CCOCC2)c2nc(N(CCO)CCO)nc(N3CCOCC3)c2n1 [compound 4]
[3]; [6]
  IC50: 4.12 µM

## OCCN(CCO)c1nc(N2CC3CC4CC(C3)CC2C4)c2nc(N(CCO)CCO)nc(N3CC4CC5CC(C4)CC3C5)c2n1 [compound 19]
[1]; [6]
  IC50: 0.393 µM
[2]; [6]
  IC50: 0.2 µM

## CCN(CC)c1nc(N(CCO)CCO)nc2c(N(CC)CC)nc(N(CCO)CCO)nc12 [compound 23]
[3]; [9]
  IC50: 2.93 µM
[2]; [9]
  IC50: 4.12 µM

## CCNc1nc(N(CCO)CCO)nc2c(NCC)nc(N(CCO)CCO)nc12 [compound 42]
[1]; [7]
  IC50: 0.768 µM

## OCCN(CCO)c1nc(NC2CC2)c2nc(N(CCO)CCO)nc(NC3CC3)c2n1 [compound 60]
[3]; [7]
  IC50: 2.71 µM
[2]; [7]
  IC50: 37.6 µM

## OCCN(CCO)c1nc(NC2CCC2)c2nc(N(CCO)CCO)nc(NC3CCC3)c2n1 [compound 62]
[3]; [7]
  IC50: 0.727 µM
[2]; [7]
  IC50: 15.7 µM

## CC(C)CCNc1nc(N(CCO)CCO)nc2c(NCCC(C)C)nc(N(CCO)CCO)nc12 [compound 56]
[3]; [7]
  IC50: 1.95 µM
[2]; [7]
  IC50: 0.495 µM

## CCCCNc1nc(N(CCO)CCO)nc2c(NCCCC)nc(N(CCO)CCO)nc12 [compound 48]
[3]; [7]
  IC50: 2.85 µM
[2]; [7]
  IC50: 1.88 µM

## CC(C)(C)OC(=O)N1CCN(c2nc(N(CCO)CCO)nc3c(N4CCN(C(=O)OC(C)(C)C)CC4)nc(N(CCO)CCO)nc23)CC1 [compound 7]
[1]; [6]
  IC50: 0.58 µM
[3]; [6]
  IC50: 2.23 µM

## O=COCCN(CCOC=O)c1nc(N2CCCCC2)c2nc(N(CCOC=O)CCOC=O)nc(N3CCCCC3)c2n1 [compound 74]
[1]; [8]
  IC50: 0.0691 µM
[3]; [8]
  IC50: 0.532 µM

## CC(C)CNc1nc(N(CCO)CCO)nc2c(NCC(C)C)nc(N(CCO)CCO)nc12 [compound 50]
[1]; [7]
  IC50: 0.126 µM
[3]; [7]
  IC50: 1.49 µM
[2]; [7]
  IC50: 3.06 µM

## OCCN(CCO)c1nc(Nc2ccccc2)c2nc(N(CCO)CCO)nc(Nc3ccccc3)c2n1 [compound 68]
[1]; [7]
  IC50: 1.12 µM

## OCCNc1nc(N2CCCCC2)c2nc(NCCO)nc(N3CCCCC3)c2n1 [compound 1]
[3]; [6]
  IC50: 7.44 µM
[2]; [6]
  IC50: 2.2 µM

## OCCN(CCO)c1nc(NC2CCCC2)c2nc(N(CCO)CCO)nc(NC3CCCC3)c2n1 [compound 64]
[3]; [7]
  IC50: 1.32 µM
[2]; [7]
  IC50: 12.2 µM

## CCOCCN(CCOCC)c1nc(N2CCCCC2)c2nc(N(CCOCC)CCOCC)nc(N3CCCCC3)c2n1 [compound 77]
[1]; [8]
  IC50: 0.768 µM
[2]; [8]
  IC50: 29.9 µM

## OCCNc1nc(N2CCCCCCC2)c2nc(NCCO)nc(N3CCCCCCC3)c2n1 [compound 14]
[3]; [6]
  IC50: 5.2 µM
[2]; [6]
  IC50: 0.181 µM

## CC(C)CCN(CCC(C)C)c1nc(N(CCO)CCO)nc2c(N(CCC(C)C)CCC(C)C)nc(N(CCO)CCO)nc12 [compound 33]
[2]; [9]
  IC50: 44.2 µM

## CCCOCCN(CCOCCC)c1nc(N2CCCCC2)c2nc(N(CCOCCC)CCOCCC)nc(N3CCCCC3)c2n1 [compound 78]
[2]; [8]
  IC50: 140 µM

## OCCN(CCO)c1nc(N2CCCCCCC2)c2nc(N(CCO)CCO)nc(N3CCCCCCC3)c2n1 [compound 13]
[3]; [6]
  IC50: 0.0908 µM
[2]; [6]
  IC50: 0.404 µM

## CCCNc1nc(N(CCO)CCO)nc2c(NCCC)nc(N(CCO)CCO)nc12 [compound 44]
[3]; [7]
  IC50: 3.5 µM
[2]; [7]
  IC50: 16.4 µM

## CCCCN(CCCC)c1nc(N(CCO)CCO)nc2c(N(CCCC)CCCC)nc(N(CCO)CCO)nc12 [compound 27]
[3]; [9]
  IC50: 3.31 µM
[2]; [9]
  IC50: 2.96 µM

## OCCN(CCO)c1nc(N2C3CCCC2CC3)c2nc(N(CCO)CCO)nc(N3C4CCCC3CC4)c2n1 [compound 17]
[3]; [6]
  IC50: 0.323 µM

## CCC(C)(C)Nc1nc(N(CCO)CCO)nc2c(NC(C)(C)CC)nc(N(CCO)CCO)nc12 [compound 58]
[1]; [7]
  IC50: 0.0789 µM
[2]; [7]
  IC50: 0.818 µM

## CCCCCNc1nc(N(CCO)CCO)nc2c(NCCCCC)nc(N(CCO)CCO)nc12 [compound 54]
[3]; [7]
  IC50: 4.79 µM
[2]; [7]
  IC50: 0.603 µM

## OCCN(CCO)c1nc(N(Cc2ccccc2)Cc2ccccc2)c2nc(N(CCO)CCO)nc(N(Cc3ccccc3)Cc3ccccc3)c2n1 [compound 37]
[2]; [9]
  IC50: 68.4 µM

## CCCN(CCC)c1nc(N(CCO)CCO)nc2c(N(CCC)CCC)nc(N(CCO)CCO)nc12 [compound 25]
[1]; [9]
  IC50: 0.197 µM
[3]; [9]
  IC50: 3.83 µM
[2]; [9]
  IC50: 0.234 µM

## OCCN(CCO)c1nc(N2CCCCCCCC2)c2nc(N(CCO)CCO)nc(N3CCCCCCCC3)c2n1 [compound 15]
[3]; [6]
  IC50: 2.35 µM
[2]; [6]
  IC50: 1.32 µM

## CC(=O)OCCN(CCOC(C)=O)c1nc(N2CCCCC2)c2nc(N(CCOC(C)=O)CCOC(C)=O)nc(N3CCCCC3)c2n1 [compound 75]
[3]; [8]
  IC50: 0.708 µM
[2]; [8]
  IC50: 14.1 µM

## CNc1nc(N(CCO)CCO)nc2c(NC)nc(N(CCO)CCO)nc12 [compound 40]
[1]; [7]
  IC50: 8.46 µM

## CC(C)CN(CC(C)C)c1nc(N(CCO)CCO)nc2c(N(CC(C)C)CC(C)C)nc(N(CCO)CCO)nc12 [compound 29]
[1]; [9]
  IC50: 2.63 µM
[3]; [9]
  IC50: 1.96 µM
[2]; [9]
  IC50: 1.71 µM

## OCCNc1nc(NCc2ccccc2)c2nc(NCCO)nc(NCc3ccccc3)c2n1 [compound 71]
[2]; [7]
  IC50: 1.76 µM

## CC(C)OCCN(CCO)c1nc(N2CCCCC2)c2nc(N(CCO)CCOC(C)C)nc(N3CCCCC3)c2n1 [compound 79]
[1]; [8]
  IC50: 0.0675 µM
[3]; [8]
  IC50: 0.175 µM

## OCCN(CCO)c1nc(N2CCCC2)c2nc(N(CCO)CCO)nc(N3CCCC3)c2n1 [compound 2]
[3]; [6]
  IC50: 0.556 µM

## CCCCCN(CCCCC)c1nc(N(CCO)CCO)nc2c(N(CCCCC)CCCCC)nc(N(CCO)CCO)nc12 [compound 31]
[2]; [9]
  IC50: 45.7 µM

## OCCN(CCO)c1nc(N2CCCCCC2)c2nc(N(CCO)CCO)nc(N3CCCCCC3)c2n1 [compound 11]
[3]; [6]
  IC50: 0.117 µM
[2]; [6]
  IC50: 0.379 µM

## CC(C)Nc1nc(N(CCO)CCO)nc2c(NC(C)C)nc(N(CCO)CCO)nc12 [compound 46]
[3]; [7]
  IC50: 3.02 µM
[2]; [7]
  IC50: 26 µM

## COc1cc(C(=O)OCCCN2CCCN(CCCOC(=O)c3cc(OC)c(OC)c(OC)c3)CC2)cc(OC)c1OC [dilazep]
[5]
  Ki: 134 µM
